The values that follow come from ChEMBL document CHEMBL1134730, “Synthesis and biological evaluation of didemnin photoaffinity analogues” (Bioorg Med Chem Lett, 2001).

Molecules are shown by their SMILES. *1 amine or outer side, *2 acyl side, *3 side chain or, on linkers, in order; H or OH if unused. Where a SMILES comes first, the peptide text is derived from it. Bridges are numbered along the chain shown (N, C = ends). [ ]: non-standard residue; d: D form. The star is where a group is joined. ξ: configuration not given here. X1 = CC[C@H](C)[C@@H](N[*:1])[C@@H](O)CC(=O)O[C@H](C(=O)[C@H](C)C(=O)[*:2])C(C)C; Benzoyl(4-benzoyl) = O=C(c1ccccc1)c1ccc(C(=O)*)cc1; NMeY = CN[C@@H](Cc1ccc(O)cc1)C(=O)O; dNMeL = CN[C@H](CC(C)C)C(=O)O; Ahx = NCCCCCC(=O)O; ξP = O=C(O)C1CCCN1

Common to all, as to format: functional
Test [1] in a line: The compound was evaluated for toxicity in NCI-60 tumor cells. To be noted: Homo sapiens.
Test [2] is described as follows: The compound was evaluated for growth inhibition in NCI-60 tumor cells. Conditions: Homo sapiens.
Test [3] is described as follows: The compound was evaluated for inhibition of protein biosynthesis.
The nature of test [4]: The compound was evaluated for total growth inhibition in NCI-60 tumor cells. To be noted: Homo sapiens.

On to `CC[C@H](C)[C@H]1NC(=O)[C@@H](NC(=O)[C@@H](CC(C)C)N(C)C(=O)CNC(=O)c2ccc(C(=O)c3ccccc3)cc2)[C@@H](C)OC(=O)[C@H](Cc2ccc(OC)cc2)N(C)C(=O)C2CCCN2C(=O)[C@H](CC(C)C)NC(=O)[C@@H](C)C(=O)[C@H](C(C)C)OC(=O)C[C@@H]1O` (stereo partly specified) ({Benzoyl(4-benzoyl)}-G[dNMeL]T[X1]L[ξP][NMeY](Me); ester 3-C), for which the LC50 in test [1] was determined as 23 µM. The compound further had a GI50 in test [2] of 0.013 µM. The half-maximal inhibitory concentration (IC50) in test [3] turned out to be 4.5 µM. The same compound gave a total growth inhibition concentration (TGI) in test [4] of 2 µM.

Regarding `CC[C@H](C)[C@H]1NC(=O)[C@@H](NC(=O)[C@@H](CC(C)C)N(C)C(=O)c2ccc(C(=O)c3ccccc3)cc2)[C@@H](C)OC(=O)[C@H](Cc2ccc(OC)cc2)N(C)C(=O)C2CCCN2C(=O)[C@H](CC(C)C)NC(=O)[C@@H](C)C(=O)[C@H](C(C)C)OC(=O)C[C@@H]1O` (stereo partly specified) ({Benzoyl(4-benzoyl)}-[dNMeL]T[X1]L[ξP][NMeY](Me); ester 2-C), the LC50 in test [1] came to 15 µM. In test [2], growth was halved (GI50) at 0.003 µM. Besides, half-maximal inhibition in test [3] (IC50) was put at 4 µM. In test [4], net growth stopped (TGI) at 0.35 µM.

The compound `CC[C@H](C)[C@H]1NC(=O)[C@@H](NC(=O)[C@@H](CC(C)C)N(C)C(=O)CCCCCNC(=O)c2ccc(C(=O)c3ccccc3)cc2)[C@@H](C)OC(=O)[C@H](Cc2ccc(OC)cc2)N(C)C(=O)C2CCCN2C(=O)[C@H](CC(C)C)NC(=O)[C@@H](C)C(=O)[C@H](C(C)C)OC(=O)C[C@@H]1O` (stereo partly specified) ({Benzoyl(4-benzoyl)-Ahx}-[dNMeL]T[X1]L[ξP][NMeY](Me); ester 2-C) came in with an LC50 in test [1] of 19 µM. In addition, growth in test [2] was halved (GI50) at 0.0043 µM. This compound had a half-maximal inhibitory concentration (IC50) in test [3] of 24 µM. In test [4], this compound displayed a TGI of 21 µM.

In test [1], `CC[C@H](C)[C@H]1NC(=O)[C@@H](NC(=O)[C@@H](CC(C)C)N(C)C(=O)CCCCCNC(=O)CCCCCNC(=O)c2ccc(C(=O)c3ccccc3)cc2)[C@@H](C)OC(=O)[C@H](Cc2ccc(OC)cc2)N(C)C(=O)C2CCCN2C(=O)[C@H](CC(C)C)NC(=O)[C@@H](C)C(=O)[C@H](C(C)C)OC(=O)C[C@@H]1O` (stereo partly specified) showed a median lethal concentration (LC50) of 48 µM. Halving of growth in test [2] (GI50) required 0.017 µM. In addition, in test [3], half-maximal inhibition (IC50) was put at 19 µM. For the same compound, the TGI in test [4] is 5 µM.

For orientation: LC50 means the concentration that kills 50% of the test population. Lower therefore signals a more lethal substance. The GI50 is the concentration that inhibits growth by half. The IC50 is the midpoint of a concentration-inhibition curve. Low values mean higher potency, high ones lower potency. Broadly, the TGI is the concentration giving total growth inhibition.
